This passage reports IC50 results from US5171864A, “Di-(5-hydroxy-2(5H)-2-oxo-4-furyl)methyl-alpha,omega alkane-dioates and N,N-bis-(5-hydroxy-2(5H)-2-oxo-4-furyl)methyl-alpha,omega-dialkanoic acid amides as anti-inflammatory agents” (Allergan, Inc., priority 1991, dated 1992).

Like-named read-outs stand apart in the source and are kept apart here.

The term IC50 denotes the point on the concentration scale where inhibition reaches its midpoint.

For experiment [1], the target named is phosphoinositide-specific phospholipase C. As to the kind of experiment: Inhibition of phosphoinositide-specific phospholipase C (PLC). It counts as biochemical. As to conditions: procedure of Bennett et al, Molecular Pharmacology 32:587-593 (1987). The source says:
Inhibition of Phosphoinositide-specific Phospholipase C
The effect of compounds of this invention on phosphoinositide-specific phospholipase C may be determined by procedures described by Bennett et al, Molecular Pharmacology 32:587-593 (1987).

The target of experiment [2] is bee venom phospholipase A2 (Apis mellifera, UniProt P00630). Kind of experiment: biochemical. As to conditions: read-out: PLA2 IC50.
Sequence of bee venom phospholipase A2 (P00630 34-167 limits assumed): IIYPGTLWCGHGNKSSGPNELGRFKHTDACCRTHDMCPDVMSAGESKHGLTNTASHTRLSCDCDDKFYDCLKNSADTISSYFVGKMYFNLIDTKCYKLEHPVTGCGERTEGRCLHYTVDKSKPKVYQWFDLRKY

Regarding `O=C1C=C(COC(=O)CCCCCCCCCCC(=O)OCC2=CC(=O)OC2O)C(O)O1` (stereo not shown) [Compound 1, Di-[5-hydroxy-2(5H)-2-oxo-4-furyl]methyl dodecan-1,12-dioate], the half-maximal inhibitory concentration (IC50) in experiment [1] is over 100000 nM; in experiment [2], 70 nM.

`CC(C)(C)C(=O)OC1OC(=O)C=C1COC(=O)CCCCCCCCCCC(=O)OCC1=CC(=O)OC1OC(=O)C(C)(C)C` (stereo not shown) [Compound 2, Di-[5tert-butanoyloxy-2(5H)-furano-4yl]methyl dodecan-1,12-dioate]: the IC50 was over 100000 nM in experiment [1] and over 1000 nM in experiment [2] (pH 7.4).

For the compound `O=C(CCCCCCCCCCC(=O)NCC1=CC(=O)OC1O)NCC1=CC(=O)OC1O` (stereo not shown) [Compound 3, N,N'-Bis(5-hydroxy-2(5H)-2-oxo-4-furyl)methyl-1,12-dodecanoic acid amide], the IC50 in experiment [1] was over 100000 nM; in experiment [2], 30 nM.

Turning to `O=C(CCCCCCCCCCC(=O)NCC1=CC(=O)OC1OC(=O)Nc1ccccc1)NCC1=CC(=O)OC1O` (stereo not shown) [Compound 4, N-(5-Hydroxy-2(5H)2-oxo-4-furyl)methyl-N'-(5-phenylcarbamoyloxy-2(5H) 2-oxo-4-furyl)methyl-1,12-dodecanamide], the IC50 is over 100000 nM in experiment [1] and over 1000 nM in experiment [2] (pH 7.4).

Turning to `O=C(CCCCCCCCCCC(=O)NCC1=CC(=O)OC1OC(=O)Nc1ccccc1)NCC1=CC(=O)OC1OC(=O)Nc1ccccc1` (stereo not shown) [Compound 5, N,N'-bis(5-phenylcarbamoyloxy-2(5H)2-oxo-4-furyl)methyl-1.12-dodeca], the figures for the IC50 in experiment [1] and in experiment [2] (pH 7.4) were over 100000 nM and over 1000 nM, respectively.
